These results are taken from ChEMBL document CHEMBL3120070, “Antimycobacterial evaluation of novel hybrid arylidene thiazolidine-2,4-diones” (Bioorg Med Chem Lett, 2014).

The EC50 is the concentration needed to bring the measured effect to its halfway point. One may read the EC90 as the point of the concentration-response curve where the effect stands at 90%. In general, MIC90 refers to the lowest concentration that inhibits either 90% of growth or 90% of the strains tested, depending on the study.

≈ marks a conversion by molar mass, not a printed value.

Data set [1] has as its system Mycobacterium tuberculosis. Put plainly: Antimycobacterial activity against Mycobacterium tuberculosis H37Rv assessed as growth inhibition by Alamar Blue staining-based broth microdilution assay. Format: functional, organism-based. For orientation: Resazurin is reduced to fluorescent resorufin, in cell work by metabolically active cells.
Data set [2] relates to Mycobacterium tuberculosis. Put plainly: Potency index, ratio of pyrimethamine MIC90 to compound MIC90 for Mycobacterium tuberculosis H37Rv. In kind it is functional.
The next data set has as its system Vero. Put plainly: Cytotoxicity against African green monkey Vero cells assessed as cell viability up to 62.5 ug/mL after 72 hrs by MTT assay. Particulars: chlorocebus sabaeus. Format: cell-based. Background: Tetrazolium assays rely on reduction of a dye to a coloured formazan, in cell work by metabolically active cells.
The subject of data set [3] is Mycobacterium tuberculosis. Put plainly: Potency index, ratio of cycloserine EC50 to compound EC50 for Mycobacterium tuberculosis H37Rv. Format: functional.
The subject of data set [4] is Mycobacterium tuberculosis. Put plainly: Potency index, ratio of pyrimethamine EC90 to compound EC90 for Mycobacterium tuberculosis H37Rv. In kind it is functional.
The subject of data set [5] is Mycobacterium tuberculosis. Put plainly: Potency index, ratio of pyrimethamine EC50 to compound EC50 for Mycobacterium tuberculosis H37Rv. In kind it is functional.

As to `COc1ccc(/C=C2\SC(=O)N(C(C(=O)C3CC3)c3ccccc3F)C2=O)cc1OC` (stereo unspecified), in data set [1], the 50% effective concentration (EC50) is 8 µM, the concentration for an effect of 90% (EC90) worked out at 16 µM and the MIC90 was 25 µM (≈ 11 µg/mL). Moreover, the Ratio in data set [2] turned out to be 4. Further, the Activity result in the data set with Vero is “Non-toxic”.

Consider `COc1cc(OC)c(/C=C2\SC(=O)N(C(C(=O)C3CC3)c3ccccc3F)C2=O)c(OC)c1` (stereo unspecified), for which, in data set [1], the EC50 was 13 µM, the EC90 came out at 27 µM and the MIC90 is 50 µM (≈ 23.6 µg/mL). Also, the Activity result with Vero was “Non-toxic”.

For `COc1cc(/C=C2\SC(=O)N(C(C(=O)C3CC3)c3ccccc3F)C2=O)cc(OC)c1OC` (stereo unspecified), in data set [1], the EC50 turned out to be 19 µM, the EC90 is 53 µM and the MIC90 worked out at 50 µM (≈ 23.6 µg/mL). Further, the Activity entry in the data set on Vero is “Non-toxic”.

For the compound `COc1cc(Br)c(/C=C2\SC(=O)N(C(C(=O)C3CC3)c3ccccc3F)C2=O)cc1O` (stereo unspecified), in data set [1], the EC50 came to 15 µM, the concentration for an effect of 90% (EC90) is 54 µM and the MIC90 is 50 µM (≈ 25.3 µg/mL). The Activity result in the data set on Vero is “Non-toxic”.

Consider `O=C(C1CC1)C(c1ccccc1F)N1C(=O)S/C(=C\c2ccc(N3CCCCC3)cc2)C1=O` (stereo unspecified), for which, in data set [1], the EC50 is 24 µM, the EC90 turned out to be 36 µM and the MIC90 amounted to 25 µM (≈ 11.6 µg/mL). The Ratio in data set [2] is listed as 4. Besides, in the data set on Vero, the Activity entry is “Non-toxic”.

On to `O=C(C1CC1)C(c1ccccc1F)N1C(=O)S/C(=C\c2cccs2)C1=O` (stereo unspecified), for which, in data set [3], the “Ratio EC50” value amounted to 1.95. Moreover, in data set [1], the EC50 is 6 µM, the 90% effect concentration (EC90) amounted to 11 µM and the MIC90 is 25 µM (≈ 9.69 µg/mL). Besides, in data set [2], the Ratio is listed as 4. Also, in data set [4], the Ratio came out at 6.26. Moreover, the Activity entry in the data set on Vero was “Non-toxic”. For the same compound, the “Ratio EC50” value in data set [5] was found to be 5.85.

Take `O=C(C1CC1)C(c1ccccc1F)N1C(=O)S/C(=C\c2cc(Br)cs2)C1=O` (stereo unspecified): in data set [1], the EC50 amounted to 18 µM, the EC90 is 27 µM and the MIC90 was 50 µM (≈ 23.3 µg/mL). In addition, the Activity result with Vero was “Non-toxic”.

As for `O=C(C1CC1)C(c1ccccc1F)N1C(=O)S/C(=C\c2c[nH]c3ccccc23)C1=O` (stereo unspecified), in data set [1], the EC50 worked out at 18 µM, the EC90 was determined as 27 µM and the MIC90 came to 25 µM (≈ 10.5 µg/mL). The Ratio in data set [2] was 4. Moreover, the Activity result in the data set with Vero is “Non-toxic”.

In the case of `O=C(C1CC1)C(c1ccccc1F)N1C(=O)S/C(=C\c2ccc3ccccc3n2)C1=O` (stereo unspecified), in data set [1], the EC50 amounted to 14 µM, the concentration for an effect of 90% (EC90) was determined as 68 µM and the MIC90 amounted to 25 µM (≈ 10.8 µg/mL). In addition, the Ratio in data set [2] amounted to 4. Also, the Activity result with Vero is reported as “Non-toxic”.

Turning to `O=C(C1CC1)C(c1ccccc1F)N1C(=O)S/C(=C\c2ccc3c(c2)OCO3)C1=O` (stereo unspecified), in data set [1], the EC50 was 9 µM, the EC90 came to 21 µM and the MIC90 came to 25 µM (≈ 10.6 µg/mL). Further, the Ratio in data set [2] worked out at 4. Further, the Activity result with Vero is “Non-toxic”.

Take `O=C(C1CC1)C(c1ccccc1F)N1C(=O)CSC1=O` (stereo unspecified): in data set [1], the EC50 was 6 µM, the EC90 worked out at 26 µM and the MIC90 stood at 25 µM (≈ 7.33 µg/mL). For the same compound, in data set [2], the Ratio worked out at 4. The Activity result in the data set with Vero is listed as “Non-toxic”.

Turning to `O=C(C1CC1)C(c1ccccc1F)N1C(=O)S/C(=C\c2ccccc2)C1=O` (stereo unspecified), in data set [1], the half-maximal effective concentration (EC50) amounted to 17 µM, the concentration for an effect of 90% (EC90) came out at 36 µM and the MIC90 was 50 µM (≈ 19.1 µg/mL). The Activity entry in the data set with Vero was “Non-toxic”.

Consider `O=C(C1CC1)C(c1ccccc1F)N1C(=O)S/C(=C\c2ccc(Cl)cc2)C1=O` (stereo unspecified), for which, in data set [1], the EC50 is 25 µM, the 90% effect concentration (EC90) came out at 55 µM and the MIC90 is 50 µM (≈ 20.8 µg/mL). In addition, the Activity result in the data set with Vero was “Non-toxic”.

As to `O=C(C1CC1)C(c1ccccc1F)N1C(=O)S/C(=C\c2ccc(F)cc2)C1=O` (stereo unspecified), in data set [1], the EC50 is 11 µM, the EC90 worked out at 25 µM and the MIC90 was 25 µM (≈ 9.99 µg/mL). In addition, the Ratio in data set [2] was determined as 4. Moreover, the Activity entry in the data set with Vero is on record as “Non-toxic”.

Turning to `O=C(C1CC1)C(c1ccccc1F)N1C(=O)S/C(=C\c2ccc(O)cc2)C1=O` (stereo unspecified), in data set [1], the concentration for a half-maximal effect (EC50) was determined as 10 µM, the EC90 was found to be 19 µM and the MIC90 was found to be 25 µM (≈ 9.94 µg/mL). In addition, in data set [2], the Ratio is 4. The Activity result with Vero is reported as “Non-toxic”.

On to `COc1ccc(/C=C2\SC(=O)N(C(C(=O)C3CC3)c3ccccc3F)C2=O)cc1` (stereo unspecified), for which, in data set [1], the concentration giving a half-maximal response (EC50) stood at 11 µM, the EC90 worked out at 27 µM and the MIC90 is 25 µM (≈ 10.3 µg/mL). Moreover, the Ratio in data set [2] is reported as 4. For the same compound, the Activity entry in the data set on Vero was “Non-toxic”.

As for `CSc1ccc(/C=C2\SC(=O)N(C(C(=O)C3CC3)c3ccccc3F)C2=O)cc1` (stereo unspecified), in data set [1], the EC50 is 16 µM, the EC90 was found to be 25 µM and the MIC90 was 25 µM (≈ 10.7 µg/mL). The Ratio in data set [2] turned out to be 4. In addition, the Activity result in the data set with Vero was “Non-toxic”.

On to `O=C(C1CC1)C(c1ccccc1F)N1C(=O)S/C(=C\c2ccc(O)c(O)c2)C1=O` (stereo unspecified), for which, in data set [1], the 50% effective concentration (EC50) turned out to be 21 µM, the EC90 stood at 55 µM and the MIC90 was determined as 25 µM (≈ 10.3 µg/mL). Also, the Ratio in data set [2] came to 4. Besides, the Activity result with Vero is “Non-toxic”.

`NCC[C@H](O)C(=O)N[C@@H]1C[C@H](N)[C@@H](O[C@H]2O[C@H](CN)[C@@H](O)[C@H](O)[C@H]2O)[C@H](O)[C@H]1O[C@H]1O[C@H](CO)[C@@H](O)[C@H](N)[C@H]1O` [AMIKACIN]: in data set [1], the 90% effect concentration (EC90) stood at 0.08 µM and the MIC90 worked out at 0.16 µM (≈ 0.0937 µg/mL).

Consider `N[C@@H]1CONC1=O` [CYCLOSERINE], for which, in data set [1], the EC50 is 12.5 µM, the 90% effect concentration (EC90) is 13.5 µM and the MIC90 amounted to 25 µM (≈ 2.55 µg/mL).

For the compound `CC[C@@H](CO)NCCN[C@@H](CC)CO` [ETHAMBUTOL], in data set [1], the 50% effective concentration (EC50) was less than 1.56 µM, the 90% effect concentration (EC90) worked out at 32.8 µM and the MIC90 worked out at 12.5 µM (≈ 2.55 µg/mL).

As for `NNC(=O)c1ccncc1` [ISONIAZID], in data set [1], the EC50 worked out at 0.18 µM, the EC90 was found to be 0.29 µM and the MIC90 stood at 0.31 µM (≈ 0.0425 µg/mL).

As for `CCc1nc(N)nc(N)c1-c1ccc(Cl)cc1` [PYRIMETHAMINE], in data set [1], the EC50 came to 37.4 µM, the EC90 came to 75 µM and the MIC90 worked out at 100 µM (≈ 24.9 µg/mL).
